Legend:
Assay in all cases: radiometric filter-binding kinase assay
MST4 (human) = MST4 (human) (UniProt Q9P289)
[1] = molecular target: STK11 CAB39 STRADA (human) (UniProt Q9Y376+Q7RTN6+Q15831)
INSR (human) = INSR (human) (UniProt P06213)
PKN2 (human) = PKN2 (human) (UniProt Q16513)
MAP3K5 (human) = MAP3K5 (human) (UniProt Q99683)
NTRK1 (human) = NTRK1 (human) (UniProt P04629)
EPHB3 (human) = EPHB3 (human) (UniProt P54753)
PRKCZ (human) = PRKCZ (human) (UniProt Q05513)
PIM1 (human) = PIM1 (human) (UniProt P11309)
PIM1 (human), sequence (P11309 whole entry, looked up): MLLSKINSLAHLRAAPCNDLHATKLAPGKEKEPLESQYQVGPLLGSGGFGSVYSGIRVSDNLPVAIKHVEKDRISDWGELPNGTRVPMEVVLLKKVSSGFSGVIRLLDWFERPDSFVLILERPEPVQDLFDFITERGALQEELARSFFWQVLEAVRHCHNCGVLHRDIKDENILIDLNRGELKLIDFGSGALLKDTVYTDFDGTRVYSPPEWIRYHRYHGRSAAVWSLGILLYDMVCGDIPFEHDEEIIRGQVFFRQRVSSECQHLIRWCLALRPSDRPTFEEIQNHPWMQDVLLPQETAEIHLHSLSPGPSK

EEF2K (human) = EEF2K (human) (UniProt O00418)
MAP3K1 (human) = MAP3K1 (human) (UniProt Q13233); details: compound 100.0 µM
GSK3B (human) = GSK3B (human) (UniProt P49841)
MAP3K9 (human) = MAP3K9 (human) (UniProt P80192)
MAP2K2 (human) = MAP2K2 (human) (UniProt P36507)
PAK4 (human) = PAK4 (human) (UniProt O96013)
MAPK12 (human) = MAPK12 (human) (UniProt P53778)
MAPKAPK2 (human) = MAPKAPK2 (human) (UniProt P49137)
MAPKAPK2 (human), sequence (P49137 whole entry, looked up): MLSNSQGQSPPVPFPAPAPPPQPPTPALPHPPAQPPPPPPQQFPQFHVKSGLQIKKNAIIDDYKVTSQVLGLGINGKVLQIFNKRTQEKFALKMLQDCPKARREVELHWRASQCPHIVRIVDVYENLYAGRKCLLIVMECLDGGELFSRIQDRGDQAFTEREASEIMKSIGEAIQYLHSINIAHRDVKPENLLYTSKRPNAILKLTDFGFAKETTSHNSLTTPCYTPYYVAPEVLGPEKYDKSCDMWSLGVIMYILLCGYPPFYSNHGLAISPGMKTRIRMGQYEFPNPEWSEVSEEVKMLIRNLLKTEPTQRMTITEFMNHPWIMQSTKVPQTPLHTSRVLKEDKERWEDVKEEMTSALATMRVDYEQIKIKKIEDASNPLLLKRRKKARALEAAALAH

IRAK4 (human) = IRAK4 (human) (UniProt Q9NWZ3)
IRAK4 (human), sequence (Q9NWZ3 whole entry, looked up): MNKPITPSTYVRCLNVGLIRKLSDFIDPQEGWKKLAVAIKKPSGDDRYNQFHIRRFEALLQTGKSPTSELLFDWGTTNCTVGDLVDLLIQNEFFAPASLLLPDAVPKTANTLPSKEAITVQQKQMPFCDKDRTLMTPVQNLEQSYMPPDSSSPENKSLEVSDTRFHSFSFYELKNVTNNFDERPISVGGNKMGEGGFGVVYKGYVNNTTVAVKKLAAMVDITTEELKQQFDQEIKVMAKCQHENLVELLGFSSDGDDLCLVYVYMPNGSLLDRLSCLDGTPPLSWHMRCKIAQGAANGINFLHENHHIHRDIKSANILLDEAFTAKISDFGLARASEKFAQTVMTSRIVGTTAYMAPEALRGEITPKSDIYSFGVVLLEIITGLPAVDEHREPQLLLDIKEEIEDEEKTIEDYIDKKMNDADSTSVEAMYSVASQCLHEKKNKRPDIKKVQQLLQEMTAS

MAPK9 (human) = MAPK9 (human) (UniProt P45984)
DYRK2 (human) = DYRK2 (human) (UniProt Q92630)
MAP2K6 (human) = MAP2K6 (human) (UniProt P52564)
PRKCA (human) = PRKCA (human) (UniProt P17252)
MARK2 (human) = MARK2 (human) (UniProt Q7KZI7)
ERBB4 (human) = ERBB4 (human) (UniProt Q15303)
EPHA2 (human) = EPHA2 (human) (UniProt P29317)
[2] = test system: AKT1 (human), P31749 [S473D]
MAP3K7 TAB1 (human) = MAP3K7 TAB1 (human) (UniProt Q15750+O43318)
PAK6 (human) = PAK6 (human) (UniProt Q9NQU5)
NUAK1 (human) = NUAK1 (human) (UniProt O60285)
NUAK1 (human), sequence (O60285 whole entry, looked up): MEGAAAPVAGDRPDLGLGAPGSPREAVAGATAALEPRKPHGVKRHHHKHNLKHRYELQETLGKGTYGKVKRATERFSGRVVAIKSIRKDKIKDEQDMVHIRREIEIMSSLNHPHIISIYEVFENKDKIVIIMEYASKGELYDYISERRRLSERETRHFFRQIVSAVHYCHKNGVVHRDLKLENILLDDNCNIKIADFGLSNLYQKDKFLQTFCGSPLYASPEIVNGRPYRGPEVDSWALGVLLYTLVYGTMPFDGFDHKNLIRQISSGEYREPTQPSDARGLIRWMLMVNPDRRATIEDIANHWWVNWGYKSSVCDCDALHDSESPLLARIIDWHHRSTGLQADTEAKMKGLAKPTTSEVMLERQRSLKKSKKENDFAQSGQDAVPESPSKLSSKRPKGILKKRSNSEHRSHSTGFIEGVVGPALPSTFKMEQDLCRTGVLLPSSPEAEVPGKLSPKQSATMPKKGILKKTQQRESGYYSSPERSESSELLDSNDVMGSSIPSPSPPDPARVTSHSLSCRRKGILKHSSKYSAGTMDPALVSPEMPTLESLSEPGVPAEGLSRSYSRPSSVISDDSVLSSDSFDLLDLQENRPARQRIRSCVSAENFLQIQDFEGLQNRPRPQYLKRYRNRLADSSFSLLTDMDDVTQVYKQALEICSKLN

MARK1 (human) = MARK1 (human) (UniProt Q9P0L2)
MARK4 (human) = MARK4 (human) (UniProt Q96L34)
MAP3K11 (human) = MAP3K11 (human) (UniProt Q16584)
HIPK3 (human) = HIPK3 (human) (UniProt Q9H422)
AURKA (human) = AURKA (human) (UniProt O14965)
AURKA (human), sequence (O14965 whole entry, looked up): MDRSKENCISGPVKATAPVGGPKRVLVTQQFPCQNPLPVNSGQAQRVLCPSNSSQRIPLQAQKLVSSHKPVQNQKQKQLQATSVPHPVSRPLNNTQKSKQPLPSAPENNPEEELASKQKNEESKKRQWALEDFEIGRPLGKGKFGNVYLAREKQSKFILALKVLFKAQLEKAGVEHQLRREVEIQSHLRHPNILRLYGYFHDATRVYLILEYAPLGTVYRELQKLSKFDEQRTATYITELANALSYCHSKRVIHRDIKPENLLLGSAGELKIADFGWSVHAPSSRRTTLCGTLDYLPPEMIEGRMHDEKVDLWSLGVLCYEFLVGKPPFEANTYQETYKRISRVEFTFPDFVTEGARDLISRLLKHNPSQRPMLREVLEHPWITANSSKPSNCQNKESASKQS

BRSK1 (human) = BRSK1 (human) (UniProt Q8TDC3)
MELK (human) = MELK (human) (UniProt Q14680)

INSR (human), sequence (P06213 whole entry, looked up): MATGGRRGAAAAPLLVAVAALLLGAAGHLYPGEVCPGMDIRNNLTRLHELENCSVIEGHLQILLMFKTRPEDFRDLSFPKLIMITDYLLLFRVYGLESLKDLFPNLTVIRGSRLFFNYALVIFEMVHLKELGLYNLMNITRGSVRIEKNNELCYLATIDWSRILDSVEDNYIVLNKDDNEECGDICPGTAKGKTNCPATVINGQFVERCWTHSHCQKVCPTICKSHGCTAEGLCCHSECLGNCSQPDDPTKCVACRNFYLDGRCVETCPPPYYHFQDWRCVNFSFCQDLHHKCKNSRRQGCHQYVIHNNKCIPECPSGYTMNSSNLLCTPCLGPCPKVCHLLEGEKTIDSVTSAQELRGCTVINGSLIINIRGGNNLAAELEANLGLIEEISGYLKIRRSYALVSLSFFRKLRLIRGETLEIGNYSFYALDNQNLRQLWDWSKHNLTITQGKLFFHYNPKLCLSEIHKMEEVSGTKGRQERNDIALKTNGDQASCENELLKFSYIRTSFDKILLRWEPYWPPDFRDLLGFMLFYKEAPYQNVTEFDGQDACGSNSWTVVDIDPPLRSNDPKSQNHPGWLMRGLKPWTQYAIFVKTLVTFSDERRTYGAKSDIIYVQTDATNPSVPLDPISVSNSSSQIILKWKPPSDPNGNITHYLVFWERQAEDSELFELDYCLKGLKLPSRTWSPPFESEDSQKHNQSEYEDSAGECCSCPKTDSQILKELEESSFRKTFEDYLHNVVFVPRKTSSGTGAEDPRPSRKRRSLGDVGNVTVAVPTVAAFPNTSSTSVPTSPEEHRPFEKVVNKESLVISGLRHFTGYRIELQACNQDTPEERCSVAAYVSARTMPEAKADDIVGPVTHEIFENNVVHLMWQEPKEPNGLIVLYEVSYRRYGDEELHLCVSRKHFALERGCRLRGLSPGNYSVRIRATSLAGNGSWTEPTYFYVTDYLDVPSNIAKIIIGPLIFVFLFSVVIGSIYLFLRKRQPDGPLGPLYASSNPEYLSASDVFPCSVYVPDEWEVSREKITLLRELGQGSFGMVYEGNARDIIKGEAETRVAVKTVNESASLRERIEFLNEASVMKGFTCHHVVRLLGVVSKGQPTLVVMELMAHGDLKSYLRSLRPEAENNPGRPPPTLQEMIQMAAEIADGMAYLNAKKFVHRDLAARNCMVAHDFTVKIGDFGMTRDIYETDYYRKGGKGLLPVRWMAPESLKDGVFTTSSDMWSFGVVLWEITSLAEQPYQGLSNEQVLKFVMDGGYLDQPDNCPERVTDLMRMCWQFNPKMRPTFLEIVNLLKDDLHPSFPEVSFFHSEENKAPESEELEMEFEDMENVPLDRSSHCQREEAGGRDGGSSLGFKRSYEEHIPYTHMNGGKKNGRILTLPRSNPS
MAP3K5 (human), sequence (Q99683 whole entry, looked up): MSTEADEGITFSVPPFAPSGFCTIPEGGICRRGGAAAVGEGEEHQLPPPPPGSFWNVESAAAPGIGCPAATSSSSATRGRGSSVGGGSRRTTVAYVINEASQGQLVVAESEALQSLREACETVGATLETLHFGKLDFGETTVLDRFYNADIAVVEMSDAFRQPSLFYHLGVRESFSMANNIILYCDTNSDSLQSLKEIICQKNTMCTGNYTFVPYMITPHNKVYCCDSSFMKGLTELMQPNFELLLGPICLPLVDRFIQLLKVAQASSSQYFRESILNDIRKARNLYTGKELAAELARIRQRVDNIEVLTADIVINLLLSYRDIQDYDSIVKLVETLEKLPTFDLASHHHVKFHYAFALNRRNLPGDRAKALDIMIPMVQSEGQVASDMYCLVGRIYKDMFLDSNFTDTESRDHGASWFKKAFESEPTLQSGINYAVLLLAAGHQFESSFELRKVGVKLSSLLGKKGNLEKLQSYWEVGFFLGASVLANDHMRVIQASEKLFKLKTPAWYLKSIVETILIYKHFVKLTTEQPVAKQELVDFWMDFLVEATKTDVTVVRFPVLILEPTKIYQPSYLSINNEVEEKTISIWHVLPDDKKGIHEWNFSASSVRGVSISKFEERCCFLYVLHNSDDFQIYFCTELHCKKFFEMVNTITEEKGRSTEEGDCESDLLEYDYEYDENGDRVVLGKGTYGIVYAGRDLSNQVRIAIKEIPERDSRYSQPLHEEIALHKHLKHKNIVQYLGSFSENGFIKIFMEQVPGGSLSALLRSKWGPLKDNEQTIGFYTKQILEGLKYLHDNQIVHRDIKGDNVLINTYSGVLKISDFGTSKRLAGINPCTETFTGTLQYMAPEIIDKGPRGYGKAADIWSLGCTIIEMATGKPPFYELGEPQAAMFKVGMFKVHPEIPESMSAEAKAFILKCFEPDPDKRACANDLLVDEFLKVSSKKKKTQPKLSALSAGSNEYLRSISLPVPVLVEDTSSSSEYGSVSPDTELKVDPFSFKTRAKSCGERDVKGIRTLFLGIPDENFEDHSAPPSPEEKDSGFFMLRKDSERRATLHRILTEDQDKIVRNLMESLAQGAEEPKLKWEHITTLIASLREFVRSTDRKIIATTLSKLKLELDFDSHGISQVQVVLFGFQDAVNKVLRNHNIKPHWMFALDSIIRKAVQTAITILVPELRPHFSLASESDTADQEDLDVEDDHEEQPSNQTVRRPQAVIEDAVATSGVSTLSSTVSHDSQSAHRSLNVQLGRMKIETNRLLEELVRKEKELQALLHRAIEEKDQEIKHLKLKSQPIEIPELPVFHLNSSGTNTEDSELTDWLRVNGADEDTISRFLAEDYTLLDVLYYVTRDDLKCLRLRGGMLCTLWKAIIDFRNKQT

SMILES: COC(=O)/C=C/C(=O)OC
- residual activity (MST4 (human); compound 10.0 µM): 95%
- residual activity (MST4 (human); compound 100.0 µM): 106%
- residual activity ([1]; compound 10.0 µM): 93%
- residual activity ([1]; compound 100.0 µM): 97%
- residual activity ([1]; compound 1000.0 µM): 100%
- residual activity (INSR (human); compound 10.0 µM): 60%
- residual activity (INSR (human); compound 100.0 µM): 62%
- residual activity (INSR (human); compound 1000.0 µM): 79%
- residual activity (PKN2 (human); compound 100.0 µM): 108%
- residual activity (PKN2 (human); compound 1000.0 µM): 84%
- residual activity (MAP3K5 (human); compound 10.0 µM): 93%
- residual activity (MAP3K5 (human); compound 100.0 µM): 88%
- residual activity (MAP3K5 (human); compound 1000.0 µM): 105%
- residual activity (NTRK1 (human); compound 10.0 µM): 88%
- residual activity (NTRK1 (human); compound 100.0 µM): 96%
- residual activity (NTRK1 (human); compound 1000.0 µM): 83%
- residual activity (EPHB3 (human); compound 10.0 µM): 97%
- residual activity (EPHB3 (human); compound 100.0 µM): 105%
- residual activity (EPHB3 (human); compound 1000.0 µM): 114%
- residual activity (PRKCZ (human); compound 10.0 µM): 89%
- residual activity (PRKCZ (human); compound 100.0 µM): 103%
- residual activity (PIM1 (human); compound 10.0 µM): 99%
- residual activity (PIM1 (human); compound 100.0 µM): 107%
- residual activity (PIM1 (human); compound 1000.0 µM): 101%
- residual activity (EEF2K (human); compound 100.0 µM): 106%
- residual activity (EEF2K (human); compound 1000.0 µM): 111%
- residual activity (MAP3K1 (human)): 95%
- residual activity (GSK3B (human); compound 10.0 µM): 92%
- residual activity (GSK3B (human); compound 1000.0 µM): 108%
- residual activity (MAP3K9 (human); compound 10.0 µM): 87%
- residual activity (MAP3K9 (human); compound 100.0 µM): 112%
- residual activity (MAP3K9 (human); compound 1000.0 µM): 135%
- residual activity (MAP2K2 (human); compound 10.0 µM): 105%
- residual activity (MAP2K2 (human); compound 100.0 µM): 101%
- residual activity (PAK4 (human); compound 10.0 µM): 76%
- residual activity (PAK4 (human); compound 100.0 µM): 88%
- residual activity (PAK4 (human); compound 1000.0 µM): 95%
- residual activity (MAPK12 (human); compound 10.0 µM): 87%
- residual activity (MAPK12 (human); compound 100.0 µM): 96%
- residual activity (MAPK12 (human); compound 1000.0 µM): 104%
- residual activity (MAPKAPK2 (human); compound 10.0 µM): 92%
- residual activity (MAPKAPK2 (human); compound 100.0 µM): 86%
- residual activity (MAPKAPK2 (human); compound 1000.0 µM): 93%
- residual activity (IRAK4 (human); compound 10.0 µM): 88%
- residual activity (IRAK4 (human); compound 100.0 µM): 104%
- residual activity (IRAK4 (human); compound 1000.0 µM): 117%
- residual activity (MAPK9 (human); compound 10.0 µM): 90%
- residual activity (MAPK9 (human); compound 100.0 µM): 94%
- residual activity (MAPK9 (human); compound 1000.0 µM): 101%
- residual activity (DYRK2 (human); compound 10.0 µM): 91%
- residual activity (DYRK2 (human); compound 100.0 µM): 94%
- residual activity (DYRK2 (human); compound 1000.0 µM): 103%
- residual activity (MAP2K6 (human); compound 10.0 µM): 92%
- residual activity (MAP2K6 (human); compound 100.0 µM): 88%
- residual activity (PRKCA (human); compound 10.0 µM): 99%
- residual activity (PRKCA (human); compound 100.0 µM): 101%
- residual activity (PRKCA (human); compound 1000.0 µM): 105%
- residual activity (MARK2 (human); compound 10.0 µM): 91%
- residual activity (MARK2 (human); compound 100.0 µM): 108%
- residual activity (ERBB4 (human); compound 10.0 µM): 110%
- residual activity (ERBB4 (human); compound 1000.0 µM): 108%
- residual activity (EPHA2 (human); compound 10.0 µM): 106%
- residual activity (EPHA2 (human); compound 100.0 µM): 124%
- residual activity (EPHA2 (human); compound 1000.0 µM): 129%
- residual activity ([2]; compound 10.0 µM): 93%
- residual activity ([2]; compound 100.0 µM): 94%
- residual activity ([2]; compound 1000.0 µM): 103%
- residual activity (MAP3K7 TAB1 (human); compound 10.0 µM): 105%
- residual activity (MAP3K7 TAB1 (human); compound 100.0 µM): 115%
- residual activity (MAP3K7 TAB1 (human); compound 1000.0 µM): 103%
- residual activity (PAK6 (human); compound 10.0 µM): 90%
- residual activity (PAK6 (human); compound 100.0 µM): 98%
- residual activity (PAK6 (human); compound 1000.0 µM): 103%
- residual activity (NUAK1 (human); compound 10.0 µM): 97%
- residual activity (NUAK1 (human); compound 100.0 µM): 104%
- residual activity (NUAK1 (human); compound 1000.0 µM): 101%
- residual activity (MARK1 (human); compound 10.0 µM): 98%
- residual activity (MARK1 (human); compound 100.0 µM): 115%
- residual activity (MARK1 (human); compound 1000.0 µM): 108%
- residual activity (MARK4 (human); compound 100.0 µM): 92%
- residual activity (MARK4 (human); compound 1000.0 µM): 96%
- residual activity (MAP3K11 (human); compound 10.0 µM): 100%
- residual activity (MAP3K11 (human); compound 100.0 µM): 97%
- residual activity (HIPK3 (human); compound 10.0 µM): 81%
- residual activity (HIPK3 (human); compound 100.0 µM): 94%
- residual activity (HIPK3 (human); compound 1000.0 µM): 86%
- residual activity (AURKA (human); compound 10.0 µM): 117%
- residual activity (AURKA (human); compound 100.0 µM): 120%
- residual activity (AURKA (human); compound 1000.0 µM): 114%
- residual activity (BRSK1 (human); compound 100.0 µM): 93%
- residual activity (BRSK1 (human); compound 1000.0 µM): 91%
- residual activity (MELK (human); compound 10.0 µM): 93%
- residual activity (MELK (human); compound 100.0 µM): 103%
